Like-named read-outs stand apart in the source and are kept apart here.
Columns and labels:
[1] = target: T1, human recombinant ETA receptors (Homo sapiens, UniProt P25101); assay: Inhibition of endothelin binding to membranes from CHO cells carrying human ET receptors (ETA)
T1 construct: expressed in transfected cells; host or cells: CHO cells (microsomal membranes)
T1 sequence (P25101 21-427): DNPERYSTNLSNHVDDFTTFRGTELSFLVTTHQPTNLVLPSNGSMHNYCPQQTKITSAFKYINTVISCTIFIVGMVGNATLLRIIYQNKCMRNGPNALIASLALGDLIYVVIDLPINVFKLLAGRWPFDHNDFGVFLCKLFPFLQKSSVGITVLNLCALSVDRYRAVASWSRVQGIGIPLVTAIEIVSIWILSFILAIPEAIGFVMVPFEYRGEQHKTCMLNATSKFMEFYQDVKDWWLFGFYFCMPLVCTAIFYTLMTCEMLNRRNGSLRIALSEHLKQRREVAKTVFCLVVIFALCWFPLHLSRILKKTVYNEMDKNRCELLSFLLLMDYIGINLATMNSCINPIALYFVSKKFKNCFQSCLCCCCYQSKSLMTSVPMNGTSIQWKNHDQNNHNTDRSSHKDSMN

[2] = target: T2, human recombinant ETB receptors (Homo sapiens, UniProt P24530); assay: Inhibition of endothelin binding to membranes from CHO cells carrying human ET receptors (ETB)
T2 construct: expressed in transfected cells; host or cells: CHO cells (microsomal membranes)
T2 sequence (P24530 27-442): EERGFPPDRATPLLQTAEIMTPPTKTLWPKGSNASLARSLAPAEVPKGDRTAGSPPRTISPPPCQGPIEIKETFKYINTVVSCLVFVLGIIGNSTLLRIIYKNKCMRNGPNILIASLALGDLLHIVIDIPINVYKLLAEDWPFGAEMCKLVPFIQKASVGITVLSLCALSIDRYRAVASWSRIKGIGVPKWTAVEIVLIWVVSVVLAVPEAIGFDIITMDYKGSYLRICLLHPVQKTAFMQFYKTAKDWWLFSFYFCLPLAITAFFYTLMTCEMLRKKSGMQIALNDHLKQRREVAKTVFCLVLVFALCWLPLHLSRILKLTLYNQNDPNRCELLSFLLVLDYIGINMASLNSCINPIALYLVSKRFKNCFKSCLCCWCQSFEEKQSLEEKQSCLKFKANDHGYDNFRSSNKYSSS
Experimental: 1) Inhibition of Endothelin Binding to Membranes from CHO Cells Carrying Human ET Receptors:
For competition binding studies, membranes of CHO cells expressing human recombinant ETA or ETB receptors were used. Microsomal membranes from recombinant CHO cells were prepared and the binding assay made as previously described (Breu V., et al, FEBS Lett 1993; 334:210).
The assay was performed in 200 uL 50 mM Tris/HCl buffer, pH 7.4, including 25 mM MnCl2, 1 mM EDTA and 0.5% (w/v) BSA in polypropylene microtiter plates. […]. […] After two h, the membranes were filtered on, filterplates containing GF/C filters (Unifilterplates from Canberra Packard S. A. Zürich, Switzerland). To each well, 50 uL of scintillation cocktail was added (MicroScint 20, Canberra Packard S. A. Zürich, Switzerland) and the filter plates counted in a microplate counter (TopCount, Canberra Packard S. A. Zürich, Switzerland).
All the test compounds were dissolved, diluted and added in DMSO. […] […].

[3] = membranes of CHO cells expressing human recombinant ETA receptors, 8 pM [125I]ET-1, 2 h at 20° C.
[4] = membranes of CHO cells expressing human recombinant ETB receptors, 8 pM [125I]ET-1, 2 h at 20° C.

## CCS(=O)(=O)NCCOc1nc(C2CC2)nc(NS(=O)(=O)c2ccc(C(C)C)cn2)c1Oc1ccccc1OC [Example 43, 5-i-propyl-N-[6-(2-ethanesulfonylamino-ethoxy)-5-(o-methoxyphenoxy)-2-cyclopropyl-pyrimidin-4-yl]-pyridine-2-sulfonamide]
[1]
  IC50: 75 nM
[2]
  IC50: 376 nM

## CCS(=O)(=O)NCCOc1nc(C2CC2)nc(NS(=O)(=O)c2ccc(C(C)(C)C)cc2)c1Oc1ccccc1OC [Example 44, 4-tert.-butyl-N-[6-(2-ethanesulfonylamino-ethoxy)-5-(o-methoxyphenoxy)-2-cyclopropyl-pyrimidin-4-yl]-benzene-sulfonamide]
[1]; [3]
  IC50: 119 nM
[2]; [4]
  IC50: 323 nM

## COc1ccccc1Oc1c(NS(=O)(=O)c2ccc(C(C)C)cn2)nc(N2CCOCC2)nc1OCCNS(C)(=O)=O [Example 45, 5-isopropyl-N-[6-(2-methanesulfonylamino-ethoxy)-5-(o-methoxyphenoxy)-2-(N-morpholino)-4-pyrimidinyl]-2-pyridine sulfonamide]
[1]
  IC50: 251 nM
[2]
  IC50: 336 nM

## CCCS(=O)(=O)NCCOc1nc(N2CCOCC2)nc(NS(=O)(=O)c2ccc(C(C)C)cn2)c1Oc1ccccc1OC [Example 46, 5-isopropyl-N-[6-(2-(1-propane)sulfonylamino-ethoxy)-5-(o-methoxyphenoxy)-2-(N-morpholino)-4-pyrimidinyl]-2-pyridine sulfonamide]
[1]; [3]
  IC50: 140 nM
[2]; [4]
  IC50: 103 nM

## CCCCS(=O)(=O)NCCOc1nc(C(F)(F)F)nc(NS(=O)(=O)c2ccc(C(C)C)cn2)c1Oc1ccccc1OC [Example 49, 5-i.-propyl-N-[6-(2-butanesulfonylamino-ethoxy)-5-(o-methoxyphenoxy)-2-trifluoromethyl-4-pyrimidinyl]pyridine-2-sulfonamide]
[1]
  IC50: 1030 nM
[2]
  IC50: 274 nM

## COc1ccccc1Oc1c(NS(=O)(=O)c2ccc(C(C)(C)C)cc2)nc(-c2ccncc2)nc1OCCNS(=O)(=O)c1cccs1 [Example 51, 4-tert.-butyl-N-[6-(2-(thiophene-2-sulfonylamino)-ethoxy)-5-(o-methoxyphenoxy)-2-(4-pyridyl)-4-pyrimidinyl]-benzene-sulfonamide]
[1]
  IC50: 3450 nM
[2]
  IC50: 182 nM

## COc1ccccc1Oc1c(NS(=O)(=O)c2ccc(C(C)C)cn2)nc(C(F)(F)F)nc1OCCNS(=O)(=O)c1cccs1 [Example 54, 5-i.-propyl-N-[6-(2-((2-thiophene)-sulfonylamino)-ethoxy)-5-(o-methoxyphenoxy)-2-trifluoromethyl-4-pyrimidinyl]pyridine-2-sulfonamide]
[1]
  IC50: 2410 nM
[2]
  IC50: 603 nM

## COc1ccccc1Oc1c(NS(=O)(=O)c2ccc(C)cn2)nc(N2CCOCC2)nc1OCCNS(=O)(=O)c1ccccc1 [Example 57, 5-methyl-N-[6-(2-(benzenesulfonylamino)-ethoxy)-5-(o-methoxyphenoxy)-2-(N-morpholino)-4-pyrimidinyl]-2-pyridine sulfonamide]
[1]
  IC50: 1620 nM
[2]
  IC50: 208 nM

## COc1ccccc1Oc1c(NS(=O)(=O)c2ccc(C(C)(C)C)cc2)nc(C)nc1OCCNS(=O)(=O)c1cccs1 [Example 62, 4-tert.-butyl-N-[6-(2-(2-thiophenesulfonylamino)-ethoxy)-5-(o-methoxyphenoxy)-2-methyl-4-pyrimidinyl]-benzene sulfonamide]
[1]
  IC50: 443 nM
[2]
  IC50: 163 nM

## COc1ccccc1Oc1c(NS(=O)(=O)c2ccc(C(C)C)cn2)nc(-c2ncccn2)nc1OCCNS(=O)(=O)c1cccs1 [Example 68, 5-isopropyl-N-[6-(2-(2-thiophenesulfonylamino)-ethoxy)-5-(o-methoxyphenoxy)-2-(2-pyrimidinyl)-4-pyrimidinyl]-2-pyridine sulfonamide]
[1]
  IC50: 477 nM
[2]
  IC50: 169 nM

## COc1ccccc1Oc1c(NS(=O)(=O)c2ccc(C(C)C)cn2)nc(-c2ccncc2)nc1OCCNS(=O)(=O)c1cccs1 [Example 71]
[1]
  IC50: 508 nM
[2]
  IC50: 231 nM

## CCS(=O)(=O)NCCOc1nc(-c2ccncc2)nc(NS(=O)(=O)c2ccc(C(C)C)cn2)c1Oc1ccccc1OC [Example 73]
[1]
  IC50: 233 nM
[2]
  IC50: 542 nM

## COc1ccccc1Oc1c(NS(=O)(=O)c2ccc(C(C)C)cn2)nc(-c2ccncc2)nc1OCCNS(=O)(=O)C(F)(F)F [Example 74]
[1]
  IC50: 531 nM
[2]
  IC50: 934 nM

## CCS(=O)(=O)NCCOc1nc(-c2ccncc2)nc(NS(=O)(=O)c2ccc(C)cn2)c1Oc1ccccc1OC [Example 77, 5-methyl-N-[6-(2-(ethanesulfonylamino)-ethoxy)-5-(o-methoxyphenoxy)-2-(4-pyridyl)-4-pyrimidinyl]-2-pyridine sulfonamide]
[1]; [3]
  IC50: 185 nM
[2]; [4]
  IC50: 5400 nM

## COc1ccccc1Oc1c(NS(=O)(=O)c2ccc(C)cn2)nc(-c2ccncc2)nc1OCCNS(C)(=O)=O [Example 78, 5-methyl-N-[6-(2-(methanesulfonylamino)-ethoxy)-5-(o-methoxyphenoxy)-2-(4-pyridyl)-4-pyrimidinyl]-2-pyridine sulfonamide]
[1]
  IC50: 627 nM
[2]
  IC50: 5460 nM

## CCS(=O)(=O)NCCCOc1nc(C2CC2)nc(NS(=O)(=O)c2ccc(C(C)(C)C)cc2)c1Oc1ccccc1OC [Example 79]
[1]
  IC50: 37 nM
[2]
  IC50: > 10000 nM

## CCS(=O)(=O)NCCOc1nc(N2CCOCC2)nc(NS(=O)(=O)c2ccc(C(C)(C)C)cc2)c1Oc1ccccc1OC [Example 81, 4-tert.-butyl-N-[6-(2-ethanesulfonylamino-ethoxy)-2-(N-morpholino)-5-(o-methoxyphenoxy)-pyrimidin-4-yl]-benzenesulfonamide]
[1]
  IC50: 104 nM
[2]
  IC50: 1240 nM

## CCS(=O)(=O)NCCOc1nc(N2CCN(C)CC2)nc(NS(=O)(=O)c2ccc(C(C)(C)C)cc2)c1Oc1ccccc1OC [Example 82, 4-tert.-butyl-N-[6-(2-ethanesulfonylamino-ethoxy)-2-(N-(N′-methyl)-piperazinyl)-5-(o-methoxyphenoxy)-pyrimidin-4-yl]-benzene-sulfonamide]
[1]
  IC50: 311 nM
[2]
  IC50: 3510 nM

## CCS(=O)(=O)NCCCOc1nc(C2CC2)nc(NS(=O)(=O)c2ccc(C(C)C)cn2)c1Oc1ccccc1OC [Example 91, 5-i.-propyl-N-[6-(3-(ethanesulfonylamino)-propoxy)-5-(o-methoxyphenoxy)-2-cyclopropyl-4-pyrimidinyl]-pyridine-2-sulfonamide]
[1]; [3]
  IC50: 45.5 nM
[2]; [4]
  IC50: 103 nM

## CCCS(=O)(=O)NCCCOc1nc(C2CC2)nc(NS(=O)(=O)c2ccc(C(C)C)cn2)c1Oc1ccccc1OC [Example 92, 5-i.-propyl-N-[6-(3-(propanesulfonylamino)-propoxy)-5-(o-methoxyphenoxy)-2-cyclopropyl-4-pyrimidinyl]-pyridine-2-sulfonamide]
[1]; [3]
  IC50: 82.1 nM
[2]; [4]
  IC50: 15 nM

## COc1ccccc1Oc1c(NS(=O)(=O)c2ccc(C(C)C)cn2)nc(C2CC2)nc1OCCCNS(=O)(=O)c1cccs1 [Example 93, 5-i.-propyl-N-[6-(3-(2-thiophenesulfonylamino)-propoxy)-5-(o-methoxyphenoxy)-2-cyclopropyl-4-pyrimidinyl]-pyridine-2-sulfonamide]
[1]; [3]
  IC50: 22.2 nM
[2]
  IC50: 3.86 nM

## COc1ccccc1Oc1c(NS(=O)(=O)c2ccc(C(C)C)cn2)nc(C2CC2)nc1OCCCNS(=O)(=O)c1ccc(C)cc1 [Example 94, 5-i.-propyl-N-[6-(3-(p-toluenesulfonylamino)-propoxy)-5-(o-methoxyphenoxy)-2-cyclopropyl-4-pyrimidinyl]-pyridine-2-sulfonamide]
[1]; [3]
  IC50: 77.3 nM
[2]
  IC50: 18.6 nM

## p-methyl-N-[6-(ethoxy-2-benzenesulfonamido)-5-(o-methoxyphenoxy)-2-(4-pyridyl)-4-pyrimidinyl]benzene-sulfonamide [Example 2]
[1]; [3]
  IC50: 1960 nM
[2]; [4]
  IC50: 1790 nM

Source: patent US6596719B1 (Actelio Pharmaceuticals Ltd., priority 1999, dated 2003)
